Results reported in ChEMBL document CHEMBL1201862, “PubChem BioAssay data set” (2004).
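Five compound concentrations were applied to cells in 96-well plates for 48 hours; endpoints were derived by simple linear interpolation of the resulting dose-response curve. The concentration for 50% growth inhibition is given as GI50.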 Activity calls are given as the source filed them. No stated cut-off is given here; in the data, active = GI50 up to about 1.1 µM and inactive = higher.

What was measured:
Assay in all cases: inhibition of tumour cell growth, NCI panel, 48 h
HL-60 = test system: HL-60
NCI-H226 = test system: NCI-H226
ACHN = test system: ACHN
HT-29 = test system: HT-29
MCF7 = test system: MCF7
MDA-MB-435 = test system: MDA-MB-435
CCRF-CEM = test system: CCRF-CEM
NCI-H23 = test system: NCI-H23
A498 = test system: A498
SR = test system: SR
RPMI-8226 = test system: RPMI-8226
MDA-MB-231 = test system: MDA-MB-231
NCI-H522 = test system: NCI-H522
786-0 = test system: 786-0
UACC-62 = test system: UACC-62
SN12C = test system: SN12C
KM12 = test system: KM12
CAKI-1 = test system: CAKI-1
RXF 393 = test system: RXF 393
TK-10 = test system: TK-10
DU-145 = test system: DU-145
HCT-116 = test system: HCT-116
IGROV-1 = test system: IGROV-1
OVCAR-3 = test system: OVCAR-3
SK-MEL-28 = test system: SK-MEL-28
SNB-75 = test system: SNB-75
EKVX = test system: EKVX
T47D = test system: T47D
COLO 205 = test system: COLO 205
OVCAR-4 = test system: OVCAR-4
A549 = test system: A549
SK-MEL-5 = test system: SK-MEL-5
SF-539 = test system: SF-539
UO-31 = test system: UO-31
SF-295 = test system: SF-295
SW-620 = test system: SW-620
HOP-92 = test system: HOP-92
Malme-3M = test system: Malme-3M
HOP-62 = test system: HOP-62
PC-3 = test system: PC-3
K562 = test system: K562
HCC 2998 = test system: HCC 2998
OVCAR-8 = test system: OVCAR-8
BT-549 = test system: BT-549
OVCAR-5 = test system: OVCAR-5
SK-MEL-2 = test system: SK-MEL-2
M14 = test system: M14
UACC-257 = test system: UACC-257
NCI-H460 = test system: NCI-H460
U-251 = test system: U-251
HCT-15 = test system: HCT-15
SF-268 = test system: SF-268
NCI/ADR-RES = test system: NCI/ADR-RES
LOX IMVI = test system: LOX IMVI
SNB-19 = test system: SNB-19
Hs-578T = test system: Hs-578T
MDA-N = test system: MDA-N
MOLT-4 = test system: MOLT-4
SK-OV-3 = test system: SK-OV-3

`CC1=C(C(=O)c2ccccc2)C23C(=O)N(c4ccccc4)C(=O)C2=C(O)C=CC3(O)N1` (stereo not drawn) was tested, and the GI50 (HL-60) was 16.6 µM (inactive), the GI50 (NCI-H226) was 35 µM (inactive) and the GI50 (ACHN) was 15.9 µM (inactive). For the same molecule, the GI50 (HT-29) was 13.6 µM (inactive), the GI50 (MCF7) was 38.3 µM (inactive) and the GI50 (MDA-MB-435) was 40 µM (inactive). The GI50 (CCRF-CEM) was 35.1 µM (inactive), the GI50 (NCI-H23) was 44.2 µM (inactive) and the GI50 (A498) was 40 µM (inactive). The GI50 (SR) was 15.4 µM (inactive), the GI50 (RPMI-8226) was 29.8 µM (inactive) and the GI50 (MDA-MB-231) was 28 µM (inactive). The GI50 (NCI-H522) was 12.7 µM (inactive), the GI50 (786-0) was 35 µM (inactive) and the GI50 (UACC-62) was 20.1 µM (inactive). For the same molecule, the GI50 (SN12C) was 30.3 µM (inactive), the GI50 (KM12) was 23.9 µM (inactive) and the GI50 (CAKI-1) was 28.9 µM (inactive). For the same molecule, the GI50 (RXF 393) was 20.2 µM (inactive), the GI50 (TK-10) was 67.1 µM (inactive) and the GI50 (DU-145) was 44.1 µM (inactive). The GI50 (HCT-116) was 37.9 µM (inactive), the GI50 (IGROV-1) was 25.6 µM (inactive) and the GI50 (OVCAR-3) was 21.4 µM (inactive). The GI50 (SK-MEL-28) was 17.3 µM (inactive), the GI50 (SNB-75) was 24.2 µM (inactive) and the GI50 (EKVX) was 76.6 µM (inactive). The GI50 (T47D) was 37.2 µM (inactive), the GI50 (COLO 205) was 50.8 µM (inactive) and the GI50 (OVCAR-4) was 17.8 µM (inactive). For the same molecule, the GI50 (A549) was 50.2 µM (inactive), the GI50 (SK-MEL-5) was 17.6 µM (inactive) and the GI50 (SF-539) was 47.9 µM (inactive). The GI50 (UO-31) was 12.2 µM (inactive), the GI50 (SF-295) was 43.4 µM (inactive) and the GI50 (SW-620) was 25.9 µM (inactive). The GI50 (HOP-92) was 17.5 µM (inactive), the GI50 (Malme-3M) was 25.2 µM (inactive) and the GI50 (HOP-62) was 32.5 µM (inactive). The GI50 (PC-3) was 28.4 µM (inactive), the GI50 (K562) was 10.9 µM (inactive) and the GI50 (HCC 2998) was 26.7 µM (inactive). The GI50 (OVCAR-8) was 34 µM (inactive), the GI50 (BT-549) was 20.4 µM (inactive) and the GI50 (OVCAR-5) was 47.2 µM (inactive). For the same molecule, the GI50 (SK-MEL-2) was 21 µM (inactive), the GI50 (M14) was 40.2 µM (inactive) and the GI50 (UACC-257) was 44.5 µM (inactive). The GI50 (NCI-H460) was 40.8 µM (inactive), the GI50 (U-251) was 28.1 µM (inactive) and the GI50 (HCT-15) was 24.6 µM. The GI50 (SF-268) was 38.6 µM (inactive), the GI50 (NCI/ADR-RES) was 51.4 µM (inactive) and the GI50 (LOX IMVI) was 19.8 µM (inactive). The GI50 (SNB-19) was 37.9 µM (inactive) and the GI50 (Hs-578T) was > 100 µM (inactive).

With `CCN(CC)Cc1nc2sc3c(c2c(=O)n1-c1ccccc1)CCCC3` the GI50 (HL-60) was 23.3 µM (inactive), the GI50 (NCI-H226) was 15.2 µM (inactive) and the GI50 (ACHN) was 20 µM (inactive). For the same molecule, the GI50 (HT-29) was 12.9 µM (inactive), the GI50 (MCF7) was 17.5 µM (inactive) and the GI50 (CCRF-CEM) was 28.4 µM (inactive). The GI50 (NCI-H23) was 35.1 µM (inactive), the GI50 (A498) was 15.3 µM (inactive) and the GI50 (SR) was 34.5 µM (inactive). For the same molecule, the GI50 (RPMI-8226) was 26.7 µM (inactive), the GI50 (MDA-MB-231) was 15.3 µM (inactive) and the GI50 (NCI-H522) was 21.8 µM (inactive). The GI50 (786-0) was 17.7 µM (inactive), the GI50 (UACC-62) was 15.4 µM (inactive) and the GI50 (SN12C) was 19.5 µM (inactive). For the same molecule, the GI50 (KM12) was 46.3 µM (inactive), the GI50 (CAKI-1) was 19.7 µM (inactive) and the GI50 (MDA-N) was 19.7 µM (inactive). For the same molecule, the GI50 (RXF 393) was 18.5 µM (inactive), the GI50 (TK-10) was 16.4 µM (inactive) and the GI50 (DU-145) was 23 µM (inactive). The GI50 (HCT-116) was 18.7 µM (inactive), the GI50 (IGROV-1) was 18.7 µM (inactive) and the GI50 (OVCAR-3) was 17.2 µM (inactive). For the same molecule, the GI50 (SK-MEL-28) was 35.4 µM (inactive), the GI50 (SNB-75) was 18.4 µM (inactive) and the GI50 (EKVX) was 19.8 µM (inactive). The GI50 (T47D) was 18.8 µM (inactive), the GI50 (COLO 205) was 17.7 µM (inactive) and the GI50 (MOLT-4) was 17.4 µM (inactive). For the same molecule, the GI50 (OVCAR-4) was 15.6 µM (inactive), the GI50 (A549) was 20.5 µM (inactive) and the GI50 (SK-MEL-5) was 16.3 µM (inactive). The GI50 (UO-31) was 11.2 µM (inactive), the GI50 (SF-295) was 23.7 µM (inactive) and the GI50 (SW-620) was 16.7 µM (inactive). For the same molecule, the GI50 (HOP-92) was 22 µM (inactive), the GI50 (Malme-3M) was 23.3 µM (inactive) and the GI50 (HOP-62) was 27.4 µM (inactive). For the same molecule, the GI50 (PC-3) was 15.9 µM (inactive), the GI50 (K562) was 35.2 µM (inactive) and the GI50 (HCC 2998) was 17.6 µM (inactive). The GI50 (OVCAR-8) was 17.5 µM (inactive), the GI50 (BT-549) was 28.3 µM (inactive) and the GI50 (OVCAR-5) was 19.7 µM (inactive). The GI50 (SK-MEL-2) was 19.1 µM (inactive), the GI50 (M14) was 15.9 µM (inactive) and the GI50 (UACC-257) was 21.2 µM (inactive). For the same molecule, the GI50 (NCI-H460) was 19.6 µM (inactive), the GI50 (U-251) was 16.9 µM (inactive) and the GI50 (HCT-15) was 23.8 µM. The GI50 (SF-268) was 21.1 µM (inactive), the GI50 (NCI/ADR-RES) was 24.8 µM (inactive) and the GI50 (LOX IMVI) was 13.8 µM (inactive). The GI50 (SK-OV-3) was 23.7 µM (inactive), the GI50 (SNB-19) was 35.6 µM (inactive) and the GI50 (Hs-578T) was 34.5 µM (inactive).
